Where a SMILES comes first, the peptide text is derived from it. [ ]: non-standard residue; d: D form. Pro(cis-4-Ph) = O=C(O)[C@@H]1C[C@H](c2ccccc2)CN1; Phe(3-CN) = N#Cc1cccc(C[C@H](N)C(=O)O)c1; Ala(2-furyl) = N[C@@H](Cc1ccco1)C(=O)O; Abu = CC[C@H](N)C(=O)O

As a reminder, the IC50 is the point on the concentration scale where inhibition reaches its midpoint. Read a high IC50 as a need for much substance.

The first assay has as its target T1, XIAP BIR3 (Homo sapiens, UniProt P98170). Briefly: HIS-tagged BIR3 XIAP domain Alphascreen assay. On the set-up: HIS-tagged XIAP BIR3 (RnD systems); purchased RnD systems. To be noted: HIS-tagged XIAP BIR3 (RnD systems), biotin-labeled IAP-binding molecule, Streptavidin Donor / Ni-NTA Acceptor Beads, incubation 2 hours; concentration reducing alphascreen signal to half of maximum. Here is the method: HIS-Tagged BIR3 XIAP Domain Alphascreen Assay
Compounds were incubated with Streptavidin Donor Beads, Ni-NTA Acceptor Beads, HIS-tagged XIAP BIR3 (RnD systems) and a biotin-labeled IAP-binding molecule. Following incubation for 2 hours the wells were read in an Envision reader. IC50s correspond to the concentration of compound which reduces the alphascreen signal to half of the maximum.
Background: Bead proximity is the source of the signal in Alpha formats.
Target sequence in this assay (P98170 252-356 limits assumed): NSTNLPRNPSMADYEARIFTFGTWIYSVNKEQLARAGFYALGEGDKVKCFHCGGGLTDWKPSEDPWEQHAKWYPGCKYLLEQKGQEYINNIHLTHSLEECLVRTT
For `CNC(C)c1cccc(C(=O)N2C[C@@H](c3ccccc3)C[C@H]2C(=O)N2CC[C@H](c3ccccc3)C2)c1` (stereo partly drawn) [Example 3, [3-(1-Methylamino-ethyl)-phenyl]-[(2S,4R)-4-phenyl-2-((R)-3-phenyl-pyrrolidine-1-carbonyl)-pyrrolidin-1-yl]-methanone], the IC50 was 100 to 1000 nM. The same measure, in the same setting: the result for `CNC(C)c1cccc(C(=O)N2C[C@@H](c3ccccc3)C[C@H]2CN2CC[C@H](c3ccccc3)C2)c1` (stereo partly drawn) [Example 11, (3-(1-(methylamino)ethyl)phenyl)((2S,4R)-4-phenyl-2-(((R)-3-phenylpyrrolidin-1-yl)methyl)pyrrolidin-1-yl)methanone] reads 100 to 1000 nM; that for `CNC(C)c1ccc(C(=O)N2C[C@@H](c3ccc(F)cc3)C[C@H]2C(=O)N2CCC(c3ccc(F)cc3)C2)o1` (stereo partly drawn) [Example 9, {(2S,4R)-4-(4-Fluoro-phenyl)-2-[3-(4-fluoro-phenyl)-pyrrolidine-1-carbonyl]-pyrrolidin-1-yl}-[5-(1-methylamino-ethyl)-furan-2-yl]-methanone], 0.1 to 100 nM.

Regarding `CNC(C)c1ccc(C(=O)N2C[C@@H](c3ccccc3)C[C@H]2CN2CC[C@H](c3ccccc3)C2)o1` (stereo partly drawn) [Example 10, (5-(1-(methylamino)ethyl)furan-2-yl)((2S,4R)-4-phenyl-2-(((R)-3-phenylpyrrolidin-1-yl)methyl)pyrrolidin-1-yl)methanone], the IC50 lay in the range of 100 to 1000 nM. As to `CNC(C)c1ccc(C(=O)N2C[C@@H](c3ccccc3)C[C@H]2C(=O)N2CC[C@H](c3ccccc3)C2)o1` (stereo partly drawn) [Example 1, [5-(1-Methylamino-ethyl)-furan-2-yl]-[(2S,4R)-4-phenyl-2-((R)-3-phenyl-pyrrolidine-1-carbonyl)-pyrrolidin-1-yl]-methanone], the IC50 was in the range of 0.1 to 100 nM. Consider `O=C(N[C@H](C(=O)N[C@@H]1CCc2ccccc21)C1CCCCC1)C1CC2(CCNCC2)CN1` (stereo partly drawn) [Example 14, 2,8-Diaza-spiro[4.5]decane-3-carboxylic acid [(S)-cyclohexyl-((R)-indan-1-ylcarbamoyl)-methyl]-amide], for which the IC50 is 100 to 1000 nM. On the same count and under the same terms, for `O=C(N[C@@H]1CCc2ccccc21)[C@@H]1C[C@@H](C2CCCCC2)CN1C(=O)C1CC2(CCNCC2)CN1` (stereo partly drawn) [Example 13, (2S,4S)-4-Cyclohexyl-1-(2,8-diaza-spiro[4.5]decane-3-carbonyl)-pyrrolidine-2-carboxylic acid (R)-indan-1-ylamide] the value was 100 to 1000 nM.

The next assay has as its target T1, XIAP BIR3. Nature of the assay: Biotinylated BIR3 XIAP domain Alphascreen assay. On the set-up: biotinylated XIAP BIR3; biotin (biotinylated). The note with it: biotinylated XIAP BIR3, FITC-labeled IAP-binding molecule, Streptavidin Donor / Anti-FITC Acceptor Beads, incubation 2 hours; concentration reducing alphascreen signal to half of maximum. Here is the method: Biotinylated BIR3 XIAP Domain Alphascreen Assay Compounds were incubated with Streptavidin Donor Beads, Anti-FITC Acceptor Beads, biotinylated XIAP BIR3 and a FITC-labeled IAP-binding molecule. Following incubation for 2 hours the wells were read in an Envision reader. IC50s correspond to the concentration of compound which reduces the alphascreen signal to half of the maximum.
Target sequence in this assay (P98170 241-356 limits assumed): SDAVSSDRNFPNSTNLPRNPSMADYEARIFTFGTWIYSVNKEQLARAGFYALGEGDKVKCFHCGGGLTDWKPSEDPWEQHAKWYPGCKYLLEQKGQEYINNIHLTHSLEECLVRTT
The compound `C[C@H](N)C1CCCC(C(=O)N2C[C@@H](c3ccccc3)C[C@H]2C(=O)N2CC[C@H](c3ccccc3)C2)N1` (stereo partly drawn) [Example 8, [6-((S)-1-Amino-ethyl)-piperidin-2-yl]-[(2S,4R)-4-phenyl-2-((R)-3-phenyl-pyrrolidine-1-carbonyl)-pyrrolidin-1-yl]-methanone] came in with an IC50 of 100 to 1000 nM. The same measure, in the same setting: for `C[C@H](N)C(=O)N[C@@H](Cc1cccc(C#N)c1)C(=O)N1C[C@@H](c2ccccc2)C[C@H]1C(=O)N[C@@H]1CCc2ccccc21` [Example 19, (2S,4R)-1-((S)-2-((S)-2-aminopropanamido)-3-(3-cyanophenyl)propanoyl)-N—((R)-2,3-dihydro-1H-inden-1-yl)-4-phenylpyrrolidine-2-carboxamide] the value was 0.1 to 100 nM; for `CNC(=O)[C@@H]1C[C@H](c2ccccc2)CN1C(=O)[C@@H]1C[C@H](c2ccccc2)CN1C(=O)[C@H](Cc1cccc(C#N)c1)NC(=O)[C@H](C)N` [Example 20, (2S,4R)-1-((3R,5S)-1-((S)-2-((S)-2-aminopropanamido)-3-(3-cyanophenyl)propanoyl)-3-phenylpyrrolidine-5-carbonyl)-N-methyl-4-phenylpyrrolidine-2-carboxamide] (H-A[Phe(3-CN)][Pro(cis-4-Ph)][Pro(cis-4-Ph)]-NHMe), 0.1 to 100 nM. The compound `C[C@@H](N)C(=O)N[C@@H](Cc1cccc(C(N)=O)c1)C(=O)N1C[C@@H](c2ccccc2)C[C@H]1C(=O)N[C@@H]1CCc2ccccc21` [Example 23, (2S,4R)-1-((S)-2-((R)-2-aminopropanamido)-3-(3-carbamoylphenyl)propanoyl)-N—((R)-2,3-dihydro-1H-inden-1-yl)-4-phenylpyrrolidine-2-carboxamide] came in with an IC50 of 0.1 to 100 nM.

For the compound `CC(N)c1cccc(C(=O)N2C[C@@H](c3ccccc3)C[C@H]2C(=O)N2CC[C@H](c3ccccc3)C2)c1` (stereo partly drawn) [Example 6, [3-(1-Amino-ethyl)-phenyl]-[(2S,4R)-4-phenyl-2-((R)-3-phenyl-pyrrolidine-1-carbonyl)-pyrrolidin-1-yl]-methanone], the IC50 lay within 100 to 1000 nM. Same read-out and setting: the result for `CC[C@H](NC(=O)[C@H](C)N)C(=O)N1C[C@@H](c2ccccc2)C[C@H]1C(=O)N1C[C@@H](c2ccccc2)C[C@H]1C(=O)NC` [Example 16, (2S,4R)-1-((3R,5S)-1-((S)-2-((S)-2-aminopropanamido)butanoyl)-3-phenylpyrrolidine-5-carbonyl)-N-methyl-4-phenylpyrrolidine-2-carboxamide] (H-A[Abu][Pro(cis-4-Ph)][Pro(cis-4-Ph)]-NHMe) reads 0.1 to 100 nM.

`C[C@@H](N)C1CCCC(C(=O)N2C[C@@H](c3ccccc3)C[C@H]2C(=O)N2CC[C@H](c3ccccc3)C2)N1` (stereo partly drawn) [Example 7, [6-((R)-1-Amino-ethyl)-piperidin-2-yl]-[(2S,4R)-4-phenyl-2-((R)-3-phenyl-pyrrolidine-1-carbonyl)-pyrrolidin-1-yl]-methanone] displayed an IC50 greater than 1000 nM. Still for that read-out and setting: the result for `CC(N)c1ccc(C(=O)N2C[C@@H](c3ccccc3)C[C@H]2CN2CC[C@H](c3ccccc3)C2)o1` (stereo partly drawn) [Example 2, (5-(1-Aminoethyl)furan-2-yl)((2S,4R)-4-phenyl-2-(((R)-3-phenylpyrrolidin-1-yl)methyl)pyrrolidin-1-yl)methanone] reads 100 to 1000 nM; that for `CNC(=O)[C@@H]1C[C@H](c2ccccc2)CN1C(=O)[C@@H]1C[C@H](c2ccccc2)CN1C(=O)C(Cn1cncn1)NC(=O)[C@H](C)N` (stereo partly drawn) [Example 21, (2S,4R)-1-((3R,5S)-1-(2-((S)-2-aminopropanamido)-3-(1H-1,2,4-triazol-1-yl)propanoyl)-3-phenylpyrrolidine-5-carbonyl)-N-methyl-4-phenylpyrrolidine-2-carboxamide], 0.1 to 100 nM. The same measure, in the same setting: for `C[C@H](N)C(=O)N[C@@H](Cc1cccc(C(N)=O)c1)C(=O)N1CC(C(=O)NC2CCc3ccccc32)C1c1ccccc1` (stereo in doubt) [Example 24, 1-((S)-2-((S)-2-aminopropanamido)-3-(3-carbamoylphenyl)propanoyl)-N—((R)-2,3-dihydro-1H-inden-1-yl)-2-phenylazetidine-3-carboxamide] the value was 0.1 to 100 nM; for `CNC(=O)[C@@H]1C[C@H](c2ccccc2)CN1C(=O)[C@@H]1C[C@H](c2ccccc2)CN1C(=O)[C@H](Cc1ccco1)NC(=O)[C@H](C)N` [Example 15] (H-A[Ala(2-furyl)][Pro(cis-4-Ph)][Pro(cis-4-Ph)]-NHMe), 0.1 to 100 nM; for `CC(N)c1ccc(C(=O)N2C[C@@H](c3ccccc3)C[C@H]2C(=O)N2CC[C@H](c3ccccc3)C2)o1` (stereo partly drawn) [Example 5, [5-(1-Amino-ethyl)-furan-2-yl]-[(2S,4R)-4-phenyl-2-((R)-3-phenyl-pyrrolidine-1-carbonyl)-pyrrolidin-1-yl]-methanone], 0.1 to 100 nM.

For `C[C@H](N)C(=O)N[C@@H](Cc1cccc(C(N)=O)c1)C(=O)N1CC(c2ccccc2)C1C(=O)N[C@@H]1CCc2ccccc21` (stereo partly drawn) [Example 18, 1-((S)-2-((S)-2-aminopropanamido)-3-(3-carbamoylphenyl)propanoyl)-N—((R)-2,3-dihydro-1H-inden-1-yl)-3-phenylazetidine-2-carboxamide], the IC50 was in the range of 0.1 to 100 nM. Same read-out and setting: for `CC[C@H](NC)C(=O)N[C@@H](Cc1cccc(C#N)c1)C(=O)N1C[C@@H](c2ccccc2)C[C@H]1CN1CC[C@H](c2ccccc2)C1` [Example 22, (S)—N—((S)-3-(3-cyanophenyl)-1-oxo-1-((2S,4R)-4-phenyl-2-(((R)-3-phenylpyrrolidin-1-yl)methyl)pyrrolidin-1-yl)propan-2-yl)-2-(methylamino)butanamide] the value was 0.1 to 100 nM. Consider `C[C@@H](N)C(=O)N[C@@H](Cc1ccc(C(N)=O)cc1)C(=O)N1C[C@@H](c2ccccc2)C[C@H]1C(=O)N[C@@H]1CCc2ccccc21` [Example 17, (2S,4R)-1-((S)-2-((R)-2-aminopropanamido)-3-(4-carbamoylphenyl)propanoyl)-N—((R)-2,3-dihydro-1H-inden-1-yl)-4-phenylpyrrolidine-2-carboxamide], for which the IC50 is 0.1 to 100 nM.

(Values after patent US20110230419A1, “IAP BINDING COMPOUNDS” (Nuevolution A/S, priority 2008, published 2011).)
